US20120064175A1, “HSP90 Inhibitors for Treating Non-Small Cell Lung Cancer in Wild-Type EGFR and/or KRAS Patients” (Synta Pharmaceuticals Corp., priority 2010, published 2012)

Columns and labels:
[1] = tested on: FLT3 with Hsp90; settings: cited from earlier work
[2] = tested on: leukemia cells that express either wild type FLT3 or FLT3-ITD mutations; settings: Yao, et al. 2003; cited from earlier work
[3] = tested on: Kasumi-1 cells; settings: acute myeloid leukemia cell line that harbors a mutation in c-Kit; cited from earlier work
[4] = tested on: RERF-LC-AI human squamous non-small cell lung cancer cell line; test: Nude mouse xenograft model with RERF-LC-AI human tumor cells; type: in vivo; settings: RERF-LC-AI^IVP tumors, i.p., 5 days per week, 15 doses; heading only, no data given
Protocol: The human squamous non-small cell lung cancer cell line, RERF-LC-AI (RCB0444; S. Kyoizumi, et al., Cancer. Res. 45:3274-3281, 1985), was obtained from the Riken Cell Bank (Tsukuba, Ibaraki, Japan). The cell line was cultured in growth media prepared from 50% Dulbecco's Modified Eagle Medium (high glucose), 50% RPMI Media 1640, 10% fetal bovine serum (FBS), 1% 100×L-glutamine, 1% 100× penicillin-streptomycin, 1% 100× sodium pyruvate and 1% 100×MEM non-essential amino acids. FBS was obtained from American Type Culture Collection (Manassas, Va., USA) and all other reagents were obtained from Invitrogen Corp. (Carlsbad, Calif., USA). […]
The growth media was replaced every 2-3 days until the flask became 90% confluent, typically in 5-7 days. […] The supernatant was aspirated and the cell pellet was resuspended in 10 ml of growth media and the cell number determined using a hemocytometer. […]
Seven to eight week old, female Crl:CD-1-nuBR (nude) mice were obtained from Charles River Laboratories (Wilmington, Mass., USA) Animals were housed 4-5/cage in micro-isolators, with a 12 hr/12 hr light/dark cycle, acclimated for at least 1 week prior to use and fed normal laboratory chow ad libitum. […] Tumor volumes (V) were calculated by caliper measurement of the width (W), length (L) and thickness (T) of tumors using the following formula: V=0.5236×(L×W×T). […]

Compound: C=CCNC1=C2C[C@@H](C)C[C@H](OC)[C@H](O)[C@@H](C)/C=C(\C)[C@H](OC(N)=O)[C@@H](OC)/C=C\C=C(/C)C(=O)NC(=CC1=O)C2=O [Compound 17AAG, 17-allylamino-17-demethoxygeldanamycin]
- Effect on the association of FLT3 with Hsp90 [1]: disrupt the association of FLT3 with Hsp90
- Growth of leukemia cells [2]: inhibited
- Apoptosis [3]: induce apoptosis

Compound: CCc1cc(-c2nnc(S)n2-c2ccc(O)c3c2ccn3C(C)C)c(O)cc1O [Compound 48, 3-(2,4-DIHYDROXY-5-ETHYL- PHENYL)-4-(1-ISOPROPYL-7- HYDROXY-INDOL-4-YL)-5- MERCAPTO-[1,2,4] TRIAZOLE]
- Anti-tumor activity against human tumor cells in a nude mouse xenograft model [4]: Displays Anti-tumor Activity
